From patent publication US20240335555A1, “TECHNOLOGIES FOR PREVENTING OR TREATING INFECTIONS” (priority 2021, published 2024)
*: point of attachment. Biotin = O=C1N[C@H]2[C@H](CS[C@H]2CCCCC(=O)*)N1; PEG4 = NCCOCCOCCOCCOCCC(=O)O

Experiments:
[1] = system: USA-WA1/2020 (SARS-CoV-2) virus; settings: USA-WA1/2020 virus
[2] = target: T1, ACE2 binding to Spike RBD (Severe acute respiratory syndrome coronavirus 2, UniProt P0DTC2); experiment: biochemical; settings: for inhibition at 1 µM: @ 1,000 nM
T1 construct: Biotin-(I-24) or His-tagged RBD protein is added; purchased Acro Biosystems SPD-C52H3 (RBD); AC2-H5257 (ACE2-Fc)

[3] = target: T2, SARS-CoV-2 (COVID-19) S Protein RBD (Severe acute respiratory syndrome coronavirus 2, UniProt P0DTC2); format: binding; settings: Octet
T2 construct: SARS-CoV-2 (COVID-19) S Protein RBD, His Tag—Acro Biosystems SPD-C52H3; purchased Acro Biosystems SPD-C52H3

Molecule	IC50 [1]	inhibition at 1 µM [2]	IC50 ([2]; ELISA competition, read-out: IC50, Inhibition of ACE2 Binding to Spike RBD)	KD, Binding to Anchored Spike RBD [3]
CC[C@H](C)[C@H](NC(=O)[C@H](CC(C)C)NC(=O)[C@H](CC(=O)O)NC(=O)[C@H](CO)NC(=O)[C@@H](NC(=O)[C@H](CCCNC(=N)N)NC(=O)[C@H](CCSC)NC(=O)[C@H](CO)NC(=O)[C@H](C)NC(=O)[C@H](CCC(=O)O)NC(=O)[C@H](C)NC(=O)[C@H](Cc1c[nH]cn1)NC(=O)CNC(=O)[C@H](CC(C)C)NC(=O)[C@H](CCC(=O)O)NC(=O)[C@H](CC(=O)O)NC(=O)[C@H](CC(C)C)NC(=O)[C@H](CC(C)C)NC(=O)[C@H](CCCNC(=N)N)NC(=O)[C@H](CCSC)NC(=O)[C@@H](NC(=O)[C@H](CCC(=O)O)NC(=O)[C@H](Cc1ccc(O)cc1)NC(=O)[C@@H](NC(=O)[C@H](CCCCN)NC(=O)[C@H](CCC(N)=O)NC(=O)[C@H](CC(C)C)NC(=O)[C@@H](NC(=O)[C@H](Cc1c[nH]c2ccccc12)NC(=O)[C@H](CCC(=O)O)NC(=O)[C@H](CCCCN)NC(=O)[C@H](CC(=O)O)NC(=O)CCOCCOCCOCCOCCNC(=O)CCCC[C@@H]1SC[C@@H]2NC(=O)N[C@@H]21)[C@@H](C)CC)[C@@H](C)CC)[C@@H](C)CC)C(C)C)C(=O)N[C@@H](Cc1ccc(O)cc1)C(=O)N[C@@H](CCC(=O)O)C(=O)N[C@@H](Cc1ccccc1)C(=O)N[C@@H](CCSC)C(=O)N[C@@H](CCCCN)C(=O)N[C@@H](CCCCN)C(=O)NCC(=O)N[C@@H](CC(=O)O)C(=O)N[C@@H](CCC(=O)O)C(=O)N[C@@H](CCCNC(=N)N)C(=O)N[C@@H](CC(C)C)C(=O)N[C@@H](CC(C)C)C(=O)N[C@@H](CCC(=O)O)C(=O)N[C@@H](CCC(=O)O)C(=O)N[C@@H](C)C(=O)N[C@@H](CCC(=O)O)C(=O)N[C@@H](CCCNC(=N)N)C(=O)N[C@@H](CC(C)C)C(=O)N[C@@H](CC(C)C)C(=O)N[C@@H](CCC(=O)O)C(=O)N[C@@H](CCC(=O)O)C(=O)N[C@H](C(=O)N[C@@H](CCC(=O)O)C(=O)N[C@@H](CCCNC(=N)N)C(=O)O)C(C)C [Compound I-6]	< 4.6 nM	–	–	–
CC[C@H](C)[C@H](NC(=O)[C@H](CC(C)C)NC(=O)[C@H](CC(=O)O)NC(=O)[C@H](CO)NC(=O)[C@@H](NC(=O)[C@H](CCCNC(=N)N)NC(=O)[C@H](CCSC)NC(=O)[C@H](CO)NC(=O)[C@H](C)NC(=O)[C@H](CCC(=O)O)NC(=O)[C@H](C)NC(=O)[C@H](Cc1c[nH]cn1)NC(=O)CNC(=O)[C@H](CC(C)C)NC(=O)[C@H](CCC(=O)O)NC(=O)[C@H](CC(=O)O)NC(=O)[C@H](CC(C)C)NC(=O)[C@H](CC(C)C)NC(=O)[C@H](CCCNC(=N)N)NC(=O)[C@H](CCSC)NC(=O)[C@@H](NC(=O)[C@H](CCC(=O)O)NC(=O)[C@H](Cc1ccc(O)cc1)NC(=O)[C@@H](NC(=O)[C@H](CCCCN)NC(=O)[C@H](CCC(N)=O)NC(=O)[C@H](CC(C)C)NC(=O)[C@@H](NC(=O)[C@H](Cc1c[nH]c2ccccc12)NC(=O)[C@H](CCC(=O)O)NC(=O)[C@H](CCCCN)NC(=O)[C@H](CC(=O)O)NC(=O)CCOCCOCCOCCOCCNC(=O)CCCC[C@@H]1SC[C@@H]2NC(=O)N[C@@H]21)[C@@H](C)CC)[C@@H](C)CC)[C@@H](C)CC)C(C)C)C(=O)N[C@@H](Cc1ccc(O)cc1)C(=O)N[C@@H](CCC(=O)O)C(=O)N[C@@H](Cc1ccccc1)C(=O)N[C@@H](CCSC)C(=O)N[C@@H](CCCCN)C(=O)N[C@@H](CCCCN)C(=O)NCC(=O)N[C@@H](CC(=O)O)C(=O)N[C@@H](CCC(=O)O)C(=O)N[C@@H](CCCNC(=N)N)C(=O)N[C@@H](CC(C)C)C(=O)N[C@@H](CC(C)C)C(=O)N[C@@H](CCC(=O)O)C(=O)N[C@@H](CCC(=O)O)C(=O)N[C@@H](C)C(=O)N[C@@H](CCC(=O)O)C(=O)N[C@@H](CCCNC(=N)N)C(=O)N[C@@H](CC(C)C)C(=O)N[C@@H](CC(C)C)C(=O)N[C@@H](CCC(=O)O)C(=O)N[C@@H](CCC(=O)O)C(=O)N[C@H](C(=O)N[C@@H](CCC(=O)O)C(=O)N[C@@H](CCCNC(=N)N)C(N)=O)C(C)C [Compound I-14]	< 4.6 nM	–	–	–
Ac-DKEEILNKIYEIMRLLDELGNAEASMRVSDLILEFMKKGDERLLEEAERLLEEVER-NH2 [Compound I-1]	–	42%	> 1000 nM	No Binding
{Biotin-PEG4}-DKEEILNKIYEIMRLLDELGNAEASMRVSDLILEFMKKGDERLLEEAERLLEEVER-NH2 [Compound I-2]	–	30%	–	–
